# Reference: publication PMC9596378, “Discovery and molecular basis of subtype-selective cyclophilin inhibitors” (Nature Chemical Biology, 2022)
# Experiments:
# CypE K212A [1] = biological target: T1, CypE K212A (Homo sapiens, UniProt Q9UNP9, K212A); experiment: Chymotrypsin coupled prolyl-isomerase assay; type: biochemical; settings: mutant CypE K212A; read-out: Mutant Cyclophilin Prolyl Isomerase Inhibition IC50 Values, CypE K212A
# T1 construct: Lane 4- GS-CypE K212A (131-301);; His6 tag with thrombin site (pET28a LIC); GS remnant stays on the N-terminus (N, cleaved yes); host or cells: E. coli BL21(DE3)
# How it was run: (§1)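 Chymotrypsin-coupled cis–trans isomerization of Suc-AAPF-AMC (5 µM) catalysed by 5 nM cyclophilin, run cold (2–3 °C) at pH 7.3 with 5 min compound preincubation.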
# CypE K217A = biological target: T2, CypE K217A (Homo sapiens, UniProt Q9UNP9, K217A); experiment: Chymotrypsin coupled prolyl-isomerase assay; type: biochemical
# T2 construct: Lane 5- GS-CypE K217A (131-301);; His6 tag with thrombin site (pET28a LIC); GS remnant stays on the N-terminus (N, cleaved yes); host or cells: E. coli BL21(DE3)
# How it was run: as §1
# CypA = biological target: T3, CypA (Homo sapiens, UniProt P62937); experiment: Competition anisotropy binding assay with A26-Fl; settings: FP competition with 0.5 nM A26-Fl, 24 h
# T3 construct: PPIA (UniProtKB Entry P62937: residues 1–165); made in house; host or cells: E. coli BL21(DE3)
# Protocol: (§2) Adapted from previous work[52], cyclophilin in assay buffer (25 mM HEPES pH 8.0, 100 mM NaCl, 0.01% Triton X-100) at a pre-determined concentration from Supplementary Table 6 was incubated with 0.5 nM A26-Fl for 10 min at room temperature in a flat-bottom black untreated 96-well plate (Corning). Competitor macrocycle was then added to each well and incubated for 24 h. Final assay volume was 100 µL with 0.25% DMSO. Fluorescence anisotropy was then measured using a Tecan Spark plate reader using 492 nm/523 nm excitation/emission settings.
# CypB = biological target: T4, CypB (Homo sapiens, UniProt P23284); experiment: Competition anisotropy binding assay with A26-Fl; settings: FP competition with 0.5 nM A26-Fl, 24 h
# T4 construct: PPIB (UniProtKB Entry P23284: residues 34–216); His6 with TEV site (2BT vector leader) (N); made in house; host or cells: E. coli BL21(DE3)
# Protocol: as §2
# CypE K212A [2] = biological target: T1, CypE K212A; experiment: Competition anisotropy binding assay with A26-Fl; settings: FP competition with 0.5 nM A26-Fl, 24 h
# Protocol: as §2
# CypE K218A = biological target: T5, CypE K218A (Homo sapiens, UniProt Q9UNP9, K218A); experiment: Competition anisotropy binding assay with A26-Fl; settings: FP competition with 0.5 nM A26-Fl, 24 h
# T5 construct: Lane 6- GS-CypE K218A (131-301);; His6 tag with thrombin site (pET28a LIC); GS remnant stays on the N-terminus (N, cleaved yes); host or cells: E. coli BL21(DE3)
# Protocol: as §2
# PPIL3 = biological target: T6, PPIL3 (Homo sapiens, UniProt Q9H2H8); experiment: Competition anisotropy binding assay with A26-Fl; settings: FP competition with 0.5 nM A26-Fl, 24 h
# T6 construct: PPIL3 (UniProtKB Entry Q9H2H8: residues 1–161); His6 tag with TEV site (2BT vector); SNA remnant stays on the N-terminus (N, cleaved yes); made in house; host or cells: E. coli BL21(DE3)
# Protocol: as §2
# Cyp40 = Cyp40 (Homo sapiens, UniProt Q08752); experiment: Competition anisotropy binding assay with A26-Fl; set-up: PPID (UniProtKB Entry Q08752: residues 1–183); made in house; host or cells: E. coli BL21(DE3); settings: FP competition with 0.5 nM A26-Fl, 24 h
# Protocol: as §2
# CypD = CypD (Homo sapiens, UniProt P30405); experiment: Competition anisotropy binding assay with A26-Fl; set-up: PPIF (UniProtKB Entry P30405: residues 45–207); made in house; host or cells: E. coli BL21(DE3); settings: FP competition with 0.5 nM A26-Fl, 24 h
# Protocol: as §2
# His6-CypD = biological target: T7, His6-CypD (Homo sapiens, UniProt P30405); experiment: Surface plasmon resonance analysis of CypD ligands; type: binding; settings: immobilized CypD; read-out: KD CypD (SPR)
# T7 construct: PPIF (UniProtKB Entry P30405: residues 45–207); made in house; host or cells: E. coli BL21(DE3)
# Protocol: Adapting a previously used protocol, employing a Biacore T200 SPR, a Sensor S NTA (Biacore) chip was pre-loaded with 0.3 M NiCl2 and His6-CypD (50.24 nM, 1 µg mL^−1) within a solution of 10 mM HEPES, 150 mM NaCl, 0.005% Tween-20 and 1 mM TCEP (surface plasmon resonance (SPR) buffer). Protein was covalently immobilized subsequently with injection of 200 mM 1-ethyl-3-(3-dimethylaminopropyl)carbodiimide (EDC) 50 mM N-hydroxysuccinimide (NHS). EDC–NHS-activated chip was quenched by flowing 1 M ethanolamine over the chip. Compounds were dissolved in 1% DMSO/SPR buffer and flowed over the SPR chip. Binding analysis was conducted from raw sensorgram resonance unit (RU) values, where individual replicates represent kinetic fitted RU value during time of compound administration at each dose. RU values were normalized to DMSO treatment and the maximum RU value of 200 µM JOMBt. These values were evaluated using Prism v.9 by fitting one site-specific binding to calculate KD values.
# T1 sequence (Q9UNP9 131-301 K212A): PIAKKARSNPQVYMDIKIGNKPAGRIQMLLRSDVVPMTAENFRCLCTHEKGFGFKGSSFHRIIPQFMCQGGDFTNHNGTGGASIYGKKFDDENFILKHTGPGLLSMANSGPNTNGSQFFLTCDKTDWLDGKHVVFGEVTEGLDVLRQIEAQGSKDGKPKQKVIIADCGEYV
# T2 sequence (Q9UNP9 131-301 K217A): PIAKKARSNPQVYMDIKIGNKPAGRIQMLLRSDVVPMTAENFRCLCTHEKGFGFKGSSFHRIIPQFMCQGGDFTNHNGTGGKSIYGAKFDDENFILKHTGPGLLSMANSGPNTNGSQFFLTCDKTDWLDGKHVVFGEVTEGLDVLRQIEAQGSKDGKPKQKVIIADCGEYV
# Chain of Cyp40 (Q08752 1-183): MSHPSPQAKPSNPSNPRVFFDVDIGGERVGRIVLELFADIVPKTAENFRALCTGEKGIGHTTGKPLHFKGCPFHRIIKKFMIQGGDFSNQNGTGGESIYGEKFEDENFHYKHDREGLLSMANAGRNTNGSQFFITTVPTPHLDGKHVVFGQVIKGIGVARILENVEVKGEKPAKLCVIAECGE
# T4 sequence (P23284 34-216): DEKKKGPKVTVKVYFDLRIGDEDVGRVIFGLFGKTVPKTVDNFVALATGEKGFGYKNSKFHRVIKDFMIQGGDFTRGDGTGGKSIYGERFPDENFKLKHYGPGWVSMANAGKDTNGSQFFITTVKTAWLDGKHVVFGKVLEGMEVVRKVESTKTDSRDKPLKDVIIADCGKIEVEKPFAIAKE
# T3 sequence (P62937 whole entry, the tested form may be a part): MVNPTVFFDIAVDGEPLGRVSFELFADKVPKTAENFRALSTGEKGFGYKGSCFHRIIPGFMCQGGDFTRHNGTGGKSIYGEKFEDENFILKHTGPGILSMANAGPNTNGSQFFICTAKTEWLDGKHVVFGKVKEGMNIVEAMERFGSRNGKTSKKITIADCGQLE
# T6 sequence (Q9H2H8 whole entry, the tested form may be a part): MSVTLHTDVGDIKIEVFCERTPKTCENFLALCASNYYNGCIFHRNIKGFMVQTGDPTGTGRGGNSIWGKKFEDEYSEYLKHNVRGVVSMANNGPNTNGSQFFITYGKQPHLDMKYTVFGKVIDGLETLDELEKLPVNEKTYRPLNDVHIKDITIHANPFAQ
# T7 sequence (P30405 45-207): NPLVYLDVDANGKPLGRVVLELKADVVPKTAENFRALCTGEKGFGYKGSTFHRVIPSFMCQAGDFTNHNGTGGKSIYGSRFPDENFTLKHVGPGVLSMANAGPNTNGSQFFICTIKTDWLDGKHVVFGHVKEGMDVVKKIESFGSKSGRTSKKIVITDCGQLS
# Chain of CypD (P30405 45-207): as above
# T5 sequence (Q9UNP9 131-301 K218A): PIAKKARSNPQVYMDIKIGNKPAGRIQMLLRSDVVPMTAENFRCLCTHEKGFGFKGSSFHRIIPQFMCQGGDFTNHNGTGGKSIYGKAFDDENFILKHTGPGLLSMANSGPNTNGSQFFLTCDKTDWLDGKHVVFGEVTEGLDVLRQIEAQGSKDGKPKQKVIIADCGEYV
Compound,IC50 (CypE K212A [1]),less potent at inhibiting K217A prolyl-isomerase activity compared to wild-type CypE (CypE K217A),"IC50 (CypE K217A; mutant CypE K217A, read-out: Mutant Cyclophilin Prolyl Isomerase Inhibition IC50 Values, CypE K217A)",Ki (CypA),Ki (CypB),Ki (CypE K212A [2]),Ki (CypE K218A),Ki (PPIL3),Ki (Cyp40),Ki (CypD),Kd (His6-CypD)
NC(=O)C1CCNC(=O)C=CC(=O)N2CCCC(Cc3ccccc3)(C2)C(=O)NC(Cc2ccc(-c3ccc(C=O)c(B(O)O)c3)cc2)C(=O)NCc2ccccc2CC(=O)N1 (centres unmarked) [Compound C3A],30 nM,150 fold,19 nM,1800 nM,5600 nM,98 nM,250 nM,> 10000 nM,> 10000 nM,520 nM,–
NCCOCCNC(=O)C1CCNC(=O)C=CC(=O)N2CCCC(C2)C(=O)NC(Cc2ccco2)C(=O)NCc2ccccc2CC(=O)N1 (centres unmarked) [JOMBt],–,–,–,–,–,–,–,–,–,–,19000 nM
